The target of experiment [1] is Dual specificity tyrosine-phosphorylation-regulated kinase 1A (Rattus norvegicus, UniProt Q63470). The experiment in a line: Inhibition of GST-tagged rat recombinant DYRK1A expressed in Escherichia coli using myelin basic protein as substrate and [gamma-33P]ATP after 30 mins by scintillation counting.
Experiment [2] has as its target Cyclin-dependent kinase 5/CDK5 activator 1 (Homo sapiens, UniProt Q00535). The experiment in a line: Inhibition of human recombinant CDK5/p25 using [gamma-33P]ATP after 30 mins by scintillation counting. The class given is protein-complex assay.
Experiment [3] deals with Glycogen synthase kinase-3 (Sus scrofa, UniProt B2LUN4+I6LNT8). The experiment is described as follows: Inhibition of porcine brain GSK3alpha/beta using GS-1 as substrate.
The next experiment concerns CCRF-CEM. The experiment is described as follows: Cytotoxicity against human CEM cells. The format is functional, cell-based.
In experiment [4] the target is T1, DNA topoisomerase 1 (Homo sapiens) (UniProt P11387).
T1 sequence (whole entry): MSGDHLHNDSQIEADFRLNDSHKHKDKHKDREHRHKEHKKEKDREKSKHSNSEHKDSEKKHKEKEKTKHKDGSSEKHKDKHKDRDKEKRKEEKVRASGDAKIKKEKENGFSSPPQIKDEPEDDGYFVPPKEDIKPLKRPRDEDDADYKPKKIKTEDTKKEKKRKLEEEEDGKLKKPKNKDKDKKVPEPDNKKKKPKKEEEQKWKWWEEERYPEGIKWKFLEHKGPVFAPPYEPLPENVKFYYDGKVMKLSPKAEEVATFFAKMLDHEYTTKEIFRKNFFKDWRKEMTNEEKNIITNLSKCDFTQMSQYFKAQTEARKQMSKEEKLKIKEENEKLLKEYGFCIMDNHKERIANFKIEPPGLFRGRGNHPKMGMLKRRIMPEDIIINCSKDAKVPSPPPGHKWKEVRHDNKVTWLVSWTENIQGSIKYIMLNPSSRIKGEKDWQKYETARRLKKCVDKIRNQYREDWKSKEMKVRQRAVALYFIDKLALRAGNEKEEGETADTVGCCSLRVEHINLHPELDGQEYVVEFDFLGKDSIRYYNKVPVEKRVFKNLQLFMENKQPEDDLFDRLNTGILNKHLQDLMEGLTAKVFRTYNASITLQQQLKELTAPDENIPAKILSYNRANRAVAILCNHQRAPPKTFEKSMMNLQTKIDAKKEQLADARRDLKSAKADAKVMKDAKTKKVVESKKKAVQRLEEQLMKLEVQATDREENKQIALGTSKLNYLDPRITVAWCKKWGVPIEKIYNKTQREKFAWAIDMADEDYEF
The experiment in a line: Human topoisomerase 1-mediated nicking of supercoiled plasmid pUC19 DNA at 20 uM by agarose gel electrophoresis.

Experiment [5] has as its target T1, DNA topoisomerase 1 (Homo sapiens). The experiment in a line: Human topoisomerase 1-mediated nicking of supercoiled plasmid pUC19 DNA at 100 uM by agarose gel electrophoresis.

One may read the IC50 as the concentration that gives 50% inhibition.

Chain of Cyclin-dependent kinase 5/CDK5 activator 1 (Q00535 whole entry): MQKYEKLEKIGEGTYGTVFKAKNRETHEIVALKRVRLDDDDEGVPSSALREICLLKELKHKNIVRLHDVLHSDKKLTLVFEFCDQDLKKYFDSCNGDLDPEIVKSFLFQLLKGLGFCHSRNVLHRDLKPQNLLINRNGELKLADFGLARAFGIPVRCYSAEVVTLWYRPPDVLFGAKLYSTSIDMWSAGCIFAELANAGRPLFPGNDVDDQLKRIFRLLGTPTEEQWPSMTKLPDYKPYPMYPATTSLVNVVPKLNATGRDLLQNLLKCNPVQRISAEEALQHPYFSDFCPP
Chain of Cyclin-dependent kinase 5/CDK5 activator 1 (Q15078 whole entry, further chain): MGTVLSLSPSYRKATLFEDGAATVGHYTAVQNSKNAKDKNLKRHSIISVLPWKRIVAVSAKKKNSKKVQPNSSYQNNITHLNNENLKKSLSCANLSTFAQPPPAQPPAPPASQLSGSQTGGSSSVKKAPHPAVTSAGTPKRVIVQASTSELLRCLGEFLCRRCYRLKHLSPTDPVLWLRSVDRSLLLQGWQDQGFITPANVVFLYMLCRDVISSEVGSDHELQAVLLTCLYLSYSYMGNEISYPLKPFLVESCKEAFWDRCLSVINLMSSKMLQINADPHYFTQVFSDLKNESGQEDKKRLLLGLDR

For the compound `CCCOc1cccc2[nH]c3c(=O)oc4ccc(O)cc4c3c12`, the values for the IC50 in experiment [1], in experiment [2] and in experiment [3] were 1.7 µM, above 10 µM and 8.1 µM, respectively.
For `Cc1cccc2[nH]c3c(=O)oc4ccc(O)cc4c3c12` the same measures were 0.66 µM, above 10 µM and 5.9 µM.
Consider `COc1cccc2[nH]c3c(=O)oc4ccc(O)cc4c3c12`, for which the IC50 was 0.35 µM in experiment [1], at least 10 µM in experiment [2] and 3.3 µM in experiment [3].
Regarding `O=c1oc2cc(O)ccc2c2c1[nH]c1ccc(O)cc12`, the half-maximal inhibitory concentration (IC50) in experiment [1] is 0.3 µM; in experiment [2], 4.2 µM; in experiment [3], 0.42 µM; in the experiment with CCRF-CEM it was 38.5 µM. In addition, the % nicked DNA in experiment [4] was found to be 16%; in experiment [5], 21%.
With `O=c1oc2ccc(O)cc2c2c1[nH]c1cccc(C(F)(F)F)c12`, the IC50 in experiment [1] is 2.1 µM; in experiment [2], above 10 µM; in experiment [3], “>= 10 uM”.
For the compound `COc1cc(-c2c3c4cc(OC)c(O)cc4oc(=O)c3n3ccc4cc(O)c(OC)cc4c23)ccc1O` [LAMELLARIN D], half-maximal inhibition in the experiment on CCRF-CEM (IC50) required 15 µM. For the same compound, the % nicked DNA in experiment [4] is 22%; in experiment [5], 21%.
With `O=c1oc2ccc(O)cc2c2c1[nH]c1ccc(O)cc12`, the IC50 came out at 0.067 µM in experiment [1], 0.72 µM in experiment [2] and 0.31 µM in experiment [3].
For `O=c1oc2ccccc2c2c1[nH]c1ccccc12`, the IC50 in experiment [1], in experiment [2] and in experiment [3] was above 10 µM in each case.
Regarding `O=c1oc2ccc(O)cc2c2c1[nH]c1cccc(-c3ccc(O)cc3)c12`, the results for the IC50 in experiment [1], in experiment [2] and in experiment [3] were at least 10 µM, at least 10 µM and above 10 µM, respectively.
For the compound `O=c1oc2ccc(O)cc2c2c1[nH]c1ccc(F)cc12`, the IC50 in experiment [1] is 0.21 µM; in experiment [2] it was 8.4 µM; in experiment [3], 2.5 µM.
For `O=c1oc2cc(O)ccc2c2c1[nH]c1ccccc12` the same measures were 0.5 µM, 4.7 µM and 0.44 µM.
For `O=c1oc2ccc(O)cc2c2c1[nH]c1ccc(C(F)(F)F)cc12`, the 50% inhibitory concentration (IC50) is at least 10 µM in experiment [1], at least 10 µM in experiment [2] and “>= 10 uM” in experiment [3].
With `CC[C@@]1(O)C(=O)OCc2c1cc1n(c2=O)Cc2cc3ccccc3nc2-1` [CAMPTOTHECIN], the midpoint of inhibition in the experiment on CCRF-CEM, the IC50, lay at 0.005 µM.
With `COc1cccc2oc(=O)c3[nH]c4ccccc4c3c12`, the concentration for half-maximal inhibition (IC50) in experiment [1], in experiment [2] and in experiment [3] was above 10 µM each time.
Regarding `O=c1oc2ccc(O)cc2c2c1[nH]c1cc(O)ccc12`, the results for the half-inhibitory concentration (IC50) in experiment [1], in experiment [2] and in experiment [3] were 4.3 µM, above 10 µM and above 10 µM, respectively.
As to `COc1ccc(-c2ccc3c(c2)[nH]c2c(=O)oc4ccc(O)cc4c23)cc1`, the IC50 in experiment [1], in experiment [2] and in experiment [3] was above 10 µM throughout.
Consider `O=c1oc2cc(O)c(O)cc2c2c1[nH]c1ccc(O)cc12`, for which the IC50 in experiment [1] was 1.5 µM; in experiment [2] it was above 10 µM; in experiment [3], 1.3 µM.
Regarding `Cc1ccc2c(c1)[nH]c1c(=O)oc3ccc(O)cc3c12`, the values for the IC50 in experiment [1], in experiment [2] and in experiment [3] were 3.3 µM, above 10 µM and above 10 µM, respectively.
As to `O=c1oc2cc(O)ccc2c2c1[nH]c1cc(O)ccc12`, the half-inhibitory concentration (IC50) in experiment [1] was determined as 3.2 µM; in experiment [2], 10 µM; in experiment [3] it was 10 µM.
Consider `O=c1oc2ccccc2c2c1[nH]c1cccc(-c3ccc(O)cc3)c12`, for which the half-maximal inhibitory concentration (IC50) in experiment [1] is at least 10 µM; in experiment [2] it was at least 10 µM; in experiment [3] it was above 10 µM.
In the case of `O=c1oc2ccc(O)cc2c2c1[nH]c1cc3c(cc12)OCO3`, the IC50 in experiment [1] was 1.8 µM; in experiment [2], 16 µM; in experiment [3], above 10 µM.
`O=c1oc2ccc(O)cc2c2c1[nH]c1ccccc12`: the IC50 was 0.074 µM in experiment [1], 2.7 µM in experiment [2] and 0.38 µM in experiment [3].
